Results reported in the supplement of paper PMC11061612.

Columns and labels:
Assay in all cases: combination Emax (second highest fraction inhibited in the dose matrix, 72 h); higher = more inhibition; extreme values may be limits of the assay
769-P (Kidney Carcinoma) = tested on: 769-P (Kidney Carcinoma)
Procedure, shortened: (§1)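 Cell lines in DMEM/F12 or RPMI with 10% FBS were plated in 1536-well plates, held 24 hours at 37°C, 5% CO2, then given two-drug dose matrices for 72 hours (DMSO typically 0.2%). Viability was read by CellTiter-Glo 2.0 luminescence and scaled as inhibition from 0 (vehicle wells) to 1 (blank wells). Combination Emax is the second-highest inhibition in the matrix; Bliss excess is observed combination effect minus expected EA + EB − EA·EB, EA and EB being single-agent effects.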

A101D (Melanoma) = tested on: A101D (Melanoma)
Procedure, shortened: as §1

A204 (Rhabdomyosarcoma) = tested on: A204 (Rhabdomyosarcoma)
Procedure, shortened: as §1

[1] = tested on: A2780 (Ovarian Carcinoma)
Procedure, shortened: as §1

[2] = tested on: CA46 (Burkitt's Lymphoma)
Procedure, shortened: as §1

[3] = tested on: CGTH-W-1 (Thyroid Gland Carcinoma)
Procedure, shortened: as §1

[4] = tested on: DU-4475 (Breast Carcinoma)
Procedure, shortened: as §1

[5] = tested on: G-402 (Other Solid Carcinomas)
Procedure, shortened: as §1

IM-9 (Non-Cancerous) = tested on: IM-9 (Non-Cancerous)
Procedure, shortened: as §1

[6] = tested on: JHH-2 (Hepatocellular Carcinoma)
Procedure, shortened: as §1

[7] = tested on: JVM-2 (B-Cell Non-Hodgkin's Lymphoma)
Procedure, shortened: as §1

[8] = tested on: KYSE-140 (Esophageal Squamous Cell Carcinoma)
Procedure, shortened: as §1

[9] = tested on: KYSE-220 (Esophageal Squamous Cell Carcinoma)
Procedure, shortened: as §1

[10] = tested on: NCI-H1703 (Squamous Cell Lung Carcinoma)
Procedure, shortened: as §1

[11] = tested on: NCI-H441 (Lung Adenocarcinoma)
Procedure, shortened: as §1

[12] = tested on: NCI-H716 (Colorectal Carcinoma)
Procedure, shortened: as §1

[13] = tested on: OACp4C (Esophageal Adenocarcinoma)
Procedure, shortened: as §1

[14] = tested on: SK-HEP-1 (Hepatocellular Carcinoma)
Procedure, shortened: as §1

[15] = tested on: UACC-812 (Breast Carcinoma)
Procedure, shortened: as §1

[16] = tested on: huH-1 (Hepatocellular Carcinoma)
Procedure, shortened: as §1

Compound | combination Emax (769-P (Kidney Carcinoma)) | combination Emax (A101D (Melanoma)) | combination Emax (A204 (Rhabdomyosarcoma)) | combination Emax [1] | combination Emax [2] | combination Emax [3] | combination Emax [4] | combination Emax [5] | combination Emax (IM-9 (Non-Cancerous)) | combination Emax [6] | combination Emax [7] | combination Emax [8] | combination Emax [9] | combination Emax [10] | combination Emax [11] | combination Emax [12] | combination Emax [13] | combination Emax [14] | combination Emax [15] | combination Emax [16]
CCN(CCO)CCCOc1ccc2c(Nc3cc(CC(=O)Nc4cccc(F)c4)[nH]n3)ncnc2c1 [AZD2811] + C[C@@H]1COCCN1C2=NC(=NC(=C2)C3(CC3)[S@](=N)(=O)C)C4=C5C=CNC5=NC=C4 [AZD6738] (first compound max 1 µM, 7x7, partner max 10 µM) | 0.85 | 0.682 | 0.387 | 0.815 | 0.482 | 0.35 | 0.944 | 0.606 | 0.981 | 0.62 | 0.875 | 0.92 | 0.884 | 0.834 | 0.407 | 0.515 | 0.733 | 0.42 | 0.323 | 0.712
COc1cccc(OCCCN)c1-c1cc(Nc2cnc(C#N)cn2)n[nH]1 [Prexasertib] + CN(C)CCCOc1ccc(-c2ccc3ncc4c(c3c2)n(C2CCOCC2)c(=O)n4C)cn1 [AZD0156] (first compound max 1 µM, 7x7, partner max 1 µM) | 0.898 | 0.737 | 0.633 | 0.673 | 0.745 | 0.777 | 0.951 | 0.562 | 1 | 0.837 | 0.949 | 0.959 | 0.925 | 0.966 | 0.513 | 0.662 | 0.672 | 0.379 | 0.537 | 0.756
CC1(C)CCC(CN2CCN(c3ccc(C(=O)NS(=O)(=O)c4ccc(NCC5CCOCC5)c([N+](=O)[O-])c4)c(Oc4cnc5[nH]ccc5c4)c3)CC2)=C(c2ccc(Cl)cc2)C1 [Venetoclax] + COc1cc(Nc2ncc3c(n2)-c2ccc(Cl)cc2C(c2c(F)cccc2OC)=NC3)ccc1C(=O)O [Alisertib] (first compound max 1 µM, 7x7, partner max 10 µM) | 0.303 | 0.632 | 0.431 | 0.709 | 0.436 | 0.598 | 0.807 | 0.57 | 1 | 0.525 | 0.892 | 0.423 | 0.379 | 0.554 | 0.343 | 0.82 | 0.72 | 0.349 | 0.224 | 0.257
COc1cccc(OCCCN)c1-c1cc(Nc2cnc(C#N)cn2)n[nH]1 [Prexasertib] + C=CCn1c(=O)c2cnc(Nc3ccc(N4CCN(C)CC4)cc3)nc2n1-c1cccc(C(C)(C)O)n1 [AZD1775] (first compound max 1 µM, partner max 1 µM) | 0.867 | 0.832 | 0.648 | 0.945 | 0.757 | 0.765 | 0.997 | 0.731 | 1 | 0.9 | 0.942 | 0.959 | 0.973 | 0.985 | 0.539 | 0.664 | 0.835 | 0.65 | 0.662 | 0.811
COc1nnc2ccc(N3CCC(c4ccc(OCCN5CCN(C)C(=O)[C@H]5C)cc4)CC3)nn12 [AZD5153] + CC1(C)CCC(CN2CCN(c3ccc(C(=O)NS(=O)(=O)c4ccc(NCC5CCOCC5)c([N+](=O)[O-])c4)c(Oc4cnc5[nH]ccc5c4)c3)CC2)=C(c2ccc(Cl)cc2)C1 [Venetoclax] (first compound max 1 µM, 7x7, partner max 1 µM) | 0.701 | 0.67 | 0.416 | 0.736 | 0.658 | 0.212 | 0.8 | 0.769 | 0.859 | 0.357 | 0.739 | 0.603 | 0.617 | 0.655 | 0.381 | 0.615 | 0.545 | 0.485 | 0.261 | 0.401
COc1cccc(OCCCN)c1-c1cc(Nc2cnc(C#N)cn2)n[nH]1 [Prexasertib] + CCc1c2c(nc3ccc(O)cc13)-c1cc3c(c(=O)n1C2)COC(=O)[C@]3(O)CC [SN-38] (first compound max 1 µM, 7x7, partner max 0.3 µM) | 0.789 | 0.899 | 0.678 | 0.857 | 0.837 | 0.832 | 1 | 0.868 | 1 | 0.95 | 0.985 | 0.945 | 0.96 | 0.971 | 0.712 | 0.726 | 0.918 | 0.761 | 0.604 | 0.767
CCN(CCO)CCCOc1ccc2c(Nc3cc(CC(=O)Nc4cccc(F)c4)[nH]n3)ncnc2c1 [AZD2811] + C=CCn1c(=O)c2cnc(Nc3ccc(N4CCN(C)CC4)cc3)nc2n1-c1cccc(C(C)(C)O)n1 [AZD1775] (first compound max 1 µM, partner max 1 µM) | 0.632 | 0.427 | 0.27 | 0.82 | 0.489 | 0.217 | 0.948 | 0.526 | 0.999 | 0.574 | 0.91 | 0.826 | 0.804 | 0.94 | 0.343 | 0.562 | 0.809 | 0.355 | 0.116 | 0.696
Cn1cnc2c(F)c(Nc3ccc(Br)cc3Cl)c(C(=O)NOCCO)cc21 [Selumetinib] + C[C@@H]1COCCN1C2=NC(=NC(=C2)C3(CC3)[S@](=N)(=O)C)C4=C5C=CNC5=NC=C4 [AZD6738] (first compound max 10 µM, 7x7, partner max 10 µM) | 0.888 | 0.76 | 0.388 | 0.829 | 0.579 | 0.162 | 1 | 0.645 | 0.981 | 0.641 | 0.825 | 0.786 | 0.753 | 0.881 | 0.36 | 0.577 | 0.856 | 0.223 | 0.319 | 0.537
Cn1cnc2c(F)c(Nc3ccc(Br)cc3Cl)c(C(=O)NOCCO)cc21 [Selumetinib] + CCN(CCO)CCCOc1ccc2c(Nc3cc(CC(=O)Nc4cccc(F)c4)[nH]n3)ncnc2c1 [AZD2811] (first compound max 10 µM, 7x7, partner max 1 µM) | 0.356 | 0.596 | 0.286 | 0.702 | 0.312 | 0.125 | 1 | 0.578 | 0.995 | 0.325 | 0.633 | 0.294 | 0.52 | 0.472 | 0.304 | 0.428 | 0.838 | 0.362 | 0.166 | 0.307
CC1(C)CCC(CN2CCN(c3ccc(C(=O)NS(=O)(=O)c4ccc(NCC5CCOCC5)c([N+](=O)[O-])c4)c(Oc4cnc5[nH]ccc5c4)c3)CC2)=C(c2ccc(Cl)cc2)C1 [Venetoclax] + C[C@@H](Nc1cc(F)cc(F)c1)c1cc(C(=O)N(C)C)cc2c(=O)cc(N3CCOCC3)oc12 [AZD8186] (first compound max 1 µM, 7x7, partner max 3 µM) | 0.297 | 0.387 | 0.327 | 0.472 | 0.533 | 0.116 | 0.262 | 0.29 | 0.573 | 0.806 | 0.661 | 0.222 | 0.141 | 0.422 | 0.184 | 0.225 | 0.31 | 0.131 | 0.0679 | 0.152
